Tested on: 8XTBD luciferase reporter (YAP reporter) in HEK293T cells
Experiment: YAP Reporter Assay
Format: cell-based
Conditions: Homo sapiens, HEK-293T, 24 h, read-out: Firefly Luciferase IC50 (μM)
Procedure, shortened: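 HEK293T cells stably carrying 8XTBD firefly luciferase and TK-renilla (3×10^3 cells/well) dosed 3-4 h after plating with compounds from 3 μM final, 1:3 dilution, 10 points, quadruplicates. After 24 h at 37° C, Dual-Glo readings gave IC50 and maximum inhibition reported separately for firefly and renilla.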

`O=C(NCC(F)(F)F)c1ccc2c(-c3ccc(C(F)(F)F)cc3)cccc2c1` [Compound 54, N-(2,2,2-trifluoroethyl)-5-(4-(trifluoromethyl)phenyl)-2-naphthamide] was tested, and the IC50 was less than 0.1 µM.

Same assay, conditions: Homo sapiens, HEK-293T; HEK293T cells stably transfected with 8XTBD luciferase reporter and pRLTK; 24-hr incubation; top concentration 3 μM; read-out: Firefly Luciferase IC50

`C[C@@H](NC(=O)c1ccc2c(-c3ccc(C(F)(F)F)cc3)cccc2c1)c1cccc2ccsc12` [Compound 176, N-[(1R)-1-(benzothiophen-7-yl)ethyl]-5-[4-(trifluoromethyl)phenyl]naphthalene-2-carboxamide] and `C[C@@H](NC(=O)c1ccc2c(-c3ccc(C(F)(F)F)cc3)cccc2c1)c1c[nH]cn1` [Compound 277, (R)—N-(1-(1H-imidazol-4-yl)ethyl)-5-(4-(trifluoromethyl)phenyl)-2-naphthamide] fall in the same range of IC50: 0.1 to 1 µM for the first, 0.1 to 1 µM for the second.

First: CCNCC[C@@H](C)NC(=O)c1cnc2c(-c3ccc(C(F)(F)F)cc3)cccc2c1 [Compound 316, N-[(1R)-3-(ethylamino)-1-methyl-propyl]-8-[4-(trifluoromethyl)phenyl]quinoline-3-carboxamide]
Second: COC[C@H](C)NC(=O)c1cnc2c(-c3ccc(C(F)(F)F)cc3)cccc2c1 [Compound 102, (S)—N-(1-methoxypropan-2-yl)-8-(4-(trifluoromethyl)phenyl)quinoline-3-carboxamide]
The IC50 of the first is higher: 0.1 to 1 µM for the first, less than 0.1 µM for the second. The second is the more potent here.

`O=C(O)c1ccc2c(-c3ccc(C(F)(F)F)cc3)cccc2c1` [Compound 330, 5-[4-(trifluoromethyl)phenyl]naphthalene-2-carboxylic Acid] and `O=C(NCCO)c1ccc2c(-c3ccc(C(F)(F)F)cc3)cccc2c1` [Compound 86, N-(2-hydroxyethyl)-5-(4-(trifluoromethyl)phenyl)-2-naphthamide] cannot be ordered by IC50: less than 0.1 µM for the first, less than 0.1 µM for the second.

`N#CCNC(=O)c1ccc2c(-c3ccc(C(F)(F)F)cc3)cccc2c1` [Compound 113, N-(cyanomethyl)-5-(4-(trifluoromethyl)phenyl)-2-naphthamide] and `COC[C@H](C)NC(=O)c1ccc2c(-c3ccc(C(F)(F)F)cc3)cccc2c1` [Compound 89, (S)—N-(1-methoxypropan-2-yl)-5-(4-(trifluoromethyl)phenyl)-2-naphthamide] cannot be ordered by IC50: less than 0.1 µM for the first, less than 0.1 µM for the second.

`COC[C@H](C)NC(=O)c1cnc2c(-c3ccc(C(F)(F)F)cc3)cc(OC)cc2c1` [Compound 109, 6-methoxy-N-[(1S)-2-methoxy-1-methyl-ethyl]-8-[4-(trifluoromethyl)phenyl]quinoline-3-carboxamide] and `COC[C@@H](C)NC(=O)c1ccc2c(-c3ccc(C(F)(F)F)cc3)cc(OC)cc2c1` [Compound 295, (R)-7-Methoxy-N-(1-methoxypropan-2-yl)-5-(4-(trifluoromethyl)phenyl)-2-naphthamide] cannot be ordered by IC50: less than 0.1 µM for the first, less than 0.1 µM for the second.

First: CC(=O)N(C)c1ccc(-c2ccc(C(F)(F)F)cc2)c2ccc(C(=O)NC(C)C)cc12 [Compound 30, N-isopropyl-8-(N-methylacetamido)-5-(4-(trifluoromethyl)phenyl)-2-naphthamide]
Second: CCc1ccc(-c2ccc(C(F)(F)F)cc2)c2ccc(C(=O)NC(C)C)cc12 [Compound 21, 8-ethyl-N-isopropyl-5-[4-(trifluoromethyl)phenyl]naphthalene-2-carboxamide]
The IC50 of the first is higher: 0.1 to 1 µM for the first, less than 0.1 µM for the second.

First: CC(C)NC(=O)c1ccc2c(-c3ccc(C(F)(F)F)cc3)cc3onnc3c2c1 [Compound 35, N-isopropyl-5-[4-(trifluoromethyl)phenyl]benzo[e][1,2,3]benzoxadiazole-8-carboxamide]
Second: COc1ccc(-c2ccc(C(F)(F)F)cc2)c2ccc(C(=O)NC(C)C)cc12 [Compound 37, N-isopropyl-8-methoxy-5-[4-(trifluoromethyl)phenyl]naphthalene-2-carboxamide]
The IC50 of the first is higher: 0.1 to 1 µM for the first, less than 0.1 µM for the second.

`COc1cc(-c2ccc(C(F)(F)F)cc2)c2ccc(C(=O)NC(CO)c3ccccn3)cc2c1` (stereo not drawn) [Compound 291, N-(2-Hydroxy-1-(pyridin-2-yl)ethyl)-7-methoxy-5-(4-(trifluoromethyl)phenyl)-2-naphthamide] and `COc1cc(-c2ccc(C(F)(F)F)cc2)c2ccc(C(=O)N[C@H](C)c3ccccn3)cc2c1` [Compound 293, (R)-7-Methoxy-N-(1-(pyridin-2-yl)ethyl)-5-(4-(trifluoromethyl)phenyl)-2-naphthamide] cannot be ordered by IC50: less than 0.1 µM for the first, less than 0.1 µM for the second.

`[N-]=[N+]=NCCNC(=O)c1ccc2c(-c3ccc(C(F)(F)F)cc3)cccc2c1` [Compound 261, N-(2-azidoethyl)-5-(4-(trifluoromethyl)phenyl)-2-naphthamide] and `CS(=O)(=O)/C=C/CCNC(=O)c1ccc2c(-c3ccc(C(F)(F)F)cc3)cccc2c1` [Compound 311, (E)-N-(4-(Methylsulfonyl)but-3-en-1-yl)-5-(4-(trifluoromethyl)phenyl)-2-naphthamide] cannot be ordered by IC50: less than 0.1 µM for the first, less than 0.1 µM for the second.

First: CC(C)(C)OC(=O)Nc1cccc(CNC(=O)c2ccc3c(-c4ccc(C(F)(F)F)cc4)cccc3c2)c1 [Compound 236, Tert-Butyl (3-((5-(4-(trifluoromethyl)phenyl)-2-naphthamido)methyl)phenyl)carbamate]
Second: O=C(N[C@@H](CO)c1ccccn1)c1ccc2c(-c3ccc(C(F)(F)F)cc3)cccc2c1 [Compound 163, N-[(1R)-2-hydroxy-1-(2-pyridyl)ethyl]-5-[4-(trifluoromethyl)phenyl]naphthalene-2-carboxamide]
The IC50 of the first is higher: 0.1 to 1 µM for the first, less than 0.1 µM for the second.

Compared with `COC[C@H](C)NC(=O)c1ccc2c(-c3ccc(C(F)(F)F)cc3)cccc2n1` [Compound 246, (S)—N-(1-Methoxypropan-2-yl)-5-(4-(trifluoromethyl)phenyl)quinoline-2-carboxamide], `C[C@H](CN(C)C)NC(=O)c1ccc2c(-c3ccc(C(F)(F)F)cc3)cccc2c1` [Compound 65, (R)—N-(1-(dimethylamino)propan-2-yl)-5-(4-(trifluoromethyl)phenyl)-2-naphthamide] is higher in IC50: 0.1 to 1 µM for the first, 1 to 3 µM for the second.

First: O=C(O)c1ccc2c(-c3ccc(S(F)(F)(F)(F)F)cc3)cccc2c1 [Compound 329, 5-[4-(pentafluoro-sulfanyl)phenyl]naphthalene-2-carboxylic Acid]
Second: C[C@H](NC(=O)c1ccc2c(-c3ccc(C(F)(F)F)cc3)cccc2c1)C1CCC1 [Compound 251, (S)—N-(1-cyclobutylethyl)-5-(4-(trifluoromethyl)phenyl)-2-naphthamide]
The IC50 of the first is lower: less than 0.1 µM for the first, 0.1 to 1 µM for the second. The first is the more potent here.

`COc1cc(-c2ccc(C(F)(F)F)cc2)c2ncc(C(=O)N[C@@H](C)c3ccccn3)cc2c1` [Compound 108, 6-methoxy-N-[(1S)-1-(2-pyridyl)ethyl]-8-[4-(trifluoromethyl)phenyl]quinoline-3-carboxamide] and `COc1cc(-c2ccc(C(F)(F)F)cc2)c2ncc(C(=O)O)cc2c1` [Compound 325, 6-methoxy-8-(4-(trifluoromethyl)phenyl)quinoline-3-carboxylic acid] cannot be ordered by IC50: less than 0.1 µM for the first, less than 0.1 µM for the second.

Compared with `O=C(NCCC/C=C/COc1ccon1)c1ccc2c(-c3ccc(C(F)(F)F)cc3)cccc2c1` [Compound 198, N-[(E)-6-isoxazol-3-yloxyhex-4-enyl]-5-[4-(trifluoromethyl)phenyl]naphthalene-2-carboxamide], `C[C@H](NC(=O)c1ccc2c(-c3ccc(C(F)(F)F)cc3)cccc2c1)c1cnccn1` [Compound 282, (S)—N-(1-(pyrazin-2-yl)ethyl)-5-(4-(trifluoromethyl)phenyl)-2-naphthamide] is higher in IC50: less than 0.1 µM for the first, 0.1 to 1 µM for the second.

Compared with `C[C@@H](NC(=O)c1ccc2c(-c3ccc(C(F)(F)F)cc3)cccc2c1)C1CNC1` [Compound 203, (R)—N-(1-(azetidin-3-yl)ethyl)-5-(4-(trifluoromethyl)phenyl)-2-naphthamide], `C[C@H](NC(=O)c1ccc2c(-c3ccc(C(F)(F)F)cc3)cccc2c1)C1CNC1` [Compound 204, (S)—N-(1-(azetidin-3-yl)ethyl)-5-(4-(trifluoromethyl)phenyl)-2-naphthamide] is higher in IC50: less than 0.1 µM for the first, 0.1 to 1 µM for the second. The first is the more potent here.

`COc1cc(-c2ccc(C(F)(F)F)cc2)c2ccc(C(=O)NC(C)C)cc2c1` [Compound 39, N-isopropyl-7-methoxy-5-[4-(trifluoromethyl)phenyl]naphthalene-2-carboxamide] and `C[C@@H](NC(=O)c1ccc2c(-c3ccc(C(F)(F)F)cc3)cccc2c1)c1nnn(C)n1` [Compound 279, (R)—N-(1-(2-methyl-2H-tetrazol-5-yl)ethyl)-5-(4-(trifluoromethyl)phenyl)-2-naphthamide] cannot be ordered by IC50: less than 0.1 µM for the first, less than 0.1 µM for the second.

`C[C@@H](NC(=O)c1ccc2c(-c3ccc(C(F)(F)F)cc3)cccc2c1)C1CN(CC(F)F)C1` [Compound 137, (R)—N-(1-(1-(2,2-difluoroethyl)azetidin-3-yl)ethyl)-5-(4-(trifluoromethyl)phenyl)-2-naphthamide] and `C[C@H](NC(=O)c1ccc2c(-c3ccc(C(F)(F)F)cc3)cccc2c1)c1nnn(C)n1` [Compound 278, (S)—N-(1-(2-methyl-2H-tetrazol-5-yl)ethyl)-5-(4-(trifluoromethyl)phenyl)-2-naphthamide] fall in the same range of IC50: 0.1 to 1 µM for the first, 0.1 to 1 µM for the second.

First: O=C(NC1(c2ccccc2)CC1)c1ccc2c(-c3ccc(C(F)(F)F)cc3)cccc2c1 [Compound 121, N-(1-phenylcyclopropyl)-5-[4-(trifluoromethyl)phenyl]naphthalene-2-carboxamide]
Second: C[C@H](NC(=O)c1ccc2c(-c3ccc(C(F)(F)F)cc3)cccc2c1)c1cc(N(C)C)ccn1 [Compound 224, (S)—N-(1-(4-(dimethylamino)pyridin-2-yl)ethyl)-5-(4-(trifluoromethyl)phenyl)-2-naphthamide]
The IC50 of the first is lower: less than 0.1 µM for the first, 1 to 3 µM for the second. The first is the more potent here.

First: CNS(=O)(=O)c1ccc2c(-c3ccc(C(F)(F)F)cc3)cccc2c1 [Compound 3, N-methyl-5-(4-(trifluoromethyl)phenyl)naphthalene-2-sulfonamide]
Second: O=C(NCc1ccnc(COc2c(F)cccc2F)n1)c1ccc2c(-c3ccc(C(F)(F)F)cc3)cccc2c1 [Compound 172, N-((2-((2,6-difluorophenoxy)methyl)pyrimidin-4-yl)methyl)-5-(4-(trifluoromethyl)phenyl)-2-naphthamide]
The IC50 of the first is lower: less than 0.1 µM for the first, 1 to 3 µM for the second.

— US11866431B2, “Bicyclic compounds” (Vivace Therapeutics, Inc., priority 2018, dated 2024)
